# Target: T1, CDK2 (Homo sapiens, UniProt P24941)
# T1 construct: endogenous in cells; host or cells: OVCAR3 cells
# Assay: Phospho-RB measurement in OVCAR3 cells (HTRF phospho-RB S807/811)
# Assay type: cell-based
# Conditions: phosphorylation of RB protein at S807/811, HTRF, 24 h compound treatment, 0.3 to 10,000 nM, read-out: pRb (uM)
# Procedure, shortened: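 IC50 values come from four-parameter logistic fits of the DMSO-normalised 665/620 nm TR-FRET ratio for phospho-RB (S807/811). Antibody detection ran 4 h at room temperature.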
row,IC50 [µM],Compound
1,0.05,"O=S1(=O)C[C@@H]2[C@H](C1)[C@H]2Nc1nccc(-c2sc(C3(C(F)F)CC3)nc2-c2cccc(NS(=O)(=O)c3c(F)cccc3C(F)(F)F)c2F)n1 [Example 128, N-(3-(2-(1-(difluoromethyl)cyclopropyl)-5-(2-(((1R,5S,6r)-3,3-dioxido-3-thiabicyclo[3.1.0]hexan-6-yl)amino)pyrimidin-4-yl)thiazol-4-yl)-2-fluorophenyl)-2-fluoro-6-(trifluoromethyl)-benzenesulfonamide]"
2,0.09,"O=S1(=O)C[C@@H]2[C@H](C1)[C@H]2Nc1nccc(-c2sc(C3(C(F)F)CC3)nc2-c2cccc(NS(=O)(=O)c3c(F)cccc3OC(F)F)c2F)n1 [Example 129, 2-(difluoromethoxy)-N-(3-(2-(1-(difluoromethyl)cyclopropyl)-5-(2-(((1R,5S,6r)-3,3-dioxido-3-thiabicyclo[3.1.0]hexan-6-yl)amino)-pyrimidin-4-yl)thiazol-4-yl)-2-fluorophenyl)-6-fluorobenzene-sulfonamide]"
3,0.45,"O=S1(=O)C[C@@H]2[C@H](C1)[C@H]2Nc1nccc(-c2sc(N3C4CCC3CN(C3CC3)C4)nc2-c2cccc(NS(=O)(=O)c3c(F)cccc3C(F)(F)F)c2F)n1 [Example 130, N-(3-(2-(3-cyclopropyl-3,8-diazabicyclo[3.2.1]octan-8-yl)-5-(2-(((1R,5S,6r)-3,3-dioxido-3-thiabicyclo[3.1.0]hexan-6-yl)amino)-pyrimidin-4-yl)thiazol-4-yl)-2-fluorophenyl)-2-fluoro-6-(trifluoromethyl)benzenesulfonamide]"
4,0.12,"O=S1(=O)C[C@@H]2[C@H](C1)[C@H]2Nc1nccc(-c2sc(N3C4CCC3CN(C3CCC3)C4)nc2-c2cccc(NS(=O)(=O)c3c(F)cccc3C(F)(F)F)c2F)n1 [Example 131, N-(3-(2-(3-cyclobutyl-3,8-diazabicyclo[3.2.1]octan-8-yl)-5-(2-(((1R,5S,6r)-3,3-dioxido-3-thiabicyclo[3.1.0]hexan-6-yl)amino)-pyrimidin-4-yl)thiazol-4-yl)-2-fluorophenyl)-2-fluoro-6-(trifluoromethyl)benzenesulfonamide]"
5,0.05,"CS(=O)(=O)[C@H]1CC[C@@H](Nc2nccc(-c3sc(C45CC(C4)C5)nc3-c3cccc(NS(=O)(=O)c4c(F)cccc4C(F)(F)F)c3F)n2)CC1 [Example 132, N-(3-(2-(bicyclo[1.1.1]pentan-1-yl)-5-(2-(((1s,4s)-4-(methylsulfonyl)cyclohexyl)amino)pyrimidin-4-yl)thiazol-4-yl)-2-fluorophenyl)-2-fluoro-6-(trifluoromethyl)benzenesulfonamide]"
6,0.12,"CS(=O)(=O)[C@H]1CC[C@H](Nc2nccc(-c3sc(C4(C(F)(F)F)CC4)nc3-c3cccc(NS(=O)(=O)c4c(Cl)cccc4C(F)(F)F)c3F)n2)CC1 [Example 133, 2-chloro-N-(2-fluoro-3-(5-(2-(((1r,4r)-4-(methylsulfonyl)-cyclohexyl)amino)pyrimidin-4-yl)-2-(1-(trifluoromethyl)-cyclopropyl)thiazol-4-yl)phenyl)-6-(trifluoromethyl)benzene-sulfonamide]"
7,0.08,"CS(=O)(=O)[C@H]1CC[C@H](Nc2nccc(-c3sc(C45CC(C(F)F)(C4)C5)nc3-c3cccc(NS(=O)(=O)c4c(F)cccc4C(F)(F)F)c3F)n2)CC1 [Example 134, N-(3-(2-(3-(difluoromethyl)bicyclo[1.1.1]pentan-1-yl)-5-(2-(((1r,4r)-4-(methylsulfonyl)cyclohexyl)amino)pyrimidin-4-yl)thiazol-4-yl)-2-fluorophenyl)-2-fluoro-6-(trifluoromethyl)benzenesulfonamide]"
8,0.07,"CN1CC2CCC(C1)N2c1nc(-c2cccc(NS(=O)(=O)c3c(F)cccc3F)c2F)c(-c2ccnc(NC3CC4(C3)CS(=O)(=O)C4)n2)s1 [Example 135, N-(3-(5-(2-((2,2-dioxido-2-thiaspiro[3.3]heptan-6-yl)amino)-pyrimidin-4-yl)-2-(3-methyl-3,8-diazabicyclo[3.2.1]octan-8-yl)thiazol-4-yl)-2-fluorophenyl)-2,6-difluorobenzenesulfonamide]"

# Second part, the compound before the results:
row,Compound,IC50 [µM]
1,"O=S1(=O)C[C@@H]2[C@H](C1)[C@H]2Nc1nccc(-c2sc(N3C4CCC3CC(F)(F)C4)nc2-c2cccc(NS(=O)(=O)c3c(F)cccc3F)c2F)n1 [Example 115, N-(3-(2-(3,3-difluoro-8-azabicyclo[3.2.1]octan-8-yl)-5-(2-(((1R,5S,6r)-3,3-dioxido-3-thiabicyclo[3.1.0]hexan-6-yl)amino)pyrimidin-4-yl)thiazol-4-yl)-2-fluorophenyl)-2,6-difluorobenzenesulfonamide]",0.05
2,"O=S1(=O)C[C@@H]2[C@H](C1)[C@H]2Nc1nccc(-c2sc(C34CCC(CC3)CC4)nc2-c2cccc(NS(=O)(=O)c3c(F)cccc3F)c2F)n1 [Example 116, N-(3-(2-(bicyclo[2.2.2]octan-1-yl)-5-(2-(((1R,5S,6r)-3,3-dioxido-3-thiabicyclo[3.1.0]hexan-6-yl)amino)pyrimidin-4-yl)thiazol-4-yl)-2-fluorophenyl)-2,6-difluorobenzenesulfonamide]",0.09
3,"CS(=O)(=O)C1CCC(Nc2nccc(-c3sc(C45CC(C(F)(F)F)(C4)C5)nc3-c3cccc(NS(=O)(=O)c4c(Cl)cccc4C(F)(F)F)c3F)n2)CC1 (stereo not shown) [Example 118, 2-chloro-N-(2-fluoro-3-(5-(2-(((1s,4s)-4-(methylsulfonyl)-cyclohexyl)amino)pyrimidin-4-yl)-2-(3-(trifluoromethyl)bicyclo-[1.1.1]pentan-1-yl)thiazol-4-yl)phenyl)-6-(trifluoromethyl)-benzenesulfonamide]",0.73
4,"O=S1(=O)C[C@@H]2[C@H](C1)[C@@H]2Nc1nccc(-c2sc(C34CCC(CC3)CC4)nc2-c2cccc(NS(=O)(=O)c3c(F)cccc3F)c2F)n1 [Example 119, N-(3-(2-(bicyclo[2.2.2]octan-1-yl)-5-(2-(((1R,5S,6s)-3,3-dioxido-3-thiabicyclo[3.1.0]hexan-6-yl)amino)pyrimidin-4-yl)thiazol-4-yl)-2-fluorophenyl)-2,6-difluorobenzenesulfonamide]",1.34
5,"CC1(C)CCN1c1nc(-c2cccc(NS(=O)(=O)c3c(F)cccc3C(F)(F)F)c2F)c(-c2ccnc(N[C@@H]3[C@@H]4CS(=O)(=O)C[C@@H]43)n2)s1 [Example 120, N-(3-(2-(2,2-dimethylazetidin-1-yl)-5-(2-(((1R,5S,6s)-3,3-dioxido-3-thiabicyclo[3.1.0]hexan-6-yl)amino)pyrimidin-4-yl)thiazol-4-yl)-2-fluorophenyl)-2-fluoro-6-(trifluoromethyl)benzenesulfonamide]",0.29
6,"CC1(C)CCN1c1nc(-c2cccc(NS(=O)(=O)c3c(F)cccc3C(F)(F)F)c2F)c(-c2ccnc(N[C@H]3[C@@H]4CS(=O)(=O)C[C@@H]43)n2)s1 [Example 121, N-(3-(2-(2,2-dimethylazetidin-1-yl)-5-(2-(((1R,5S,6r)-3,3-dioxido-3-thiabicyclo[3.1.0]hexan-6-yl)amino)pyrimidin-4-yl)thiazol-4-yl)-2-fluorophenyl)-2-fluoro-6-(trifluoromethyl)benzenesulfonamide]",0.05
7,"CN1CC2CCC(C1)N2c1nc(-c2cccc(NS(=O)(=O)c3c(F)cccc3OC(F)F)c2F)c(-c2ccnc(N[C@H]3[C@@H]4CS(=O)(=O)C[C@@H]43)n2)s1 [Example 122, 2-(difluoromethoxy)-N-(3-(5-(2-(((1R,5S,6r)-3,3-dioxido-3-thiabicyclo[3.1.0]hexan-6-yl)amino)pyrimidin-4-yl)-2-(3-methyl-3,8-diazabicyclo[3.2.1]octan-8-yl)thiazol-4-yl)-2-fluorophenyl)-6-fluorobenzenesulfonamide]",0.04
8,"O=S1(=O)C[C@@H]2[C@H](C1)[C@H]2Nc1nccc(-c2sc(N3C4CCC3CN(C3CC(F)(F)C3)C4)nc2-c2cccc(NS(=O)(=O)c3c(F)cccc3OC(F)F)c2F)n1 [Example 123, N-(3-(2-(3-(3,3-difluorocyclobutyl)-3,8-diazabicyclo[3.2.1]octan-8-yl)-5-(2-(((1R,5S,6r)-3,3-dioxido-3-thiabicyclo[3.1.0]hexan-6-yl)amino)pyrimidin-4-yl)thiazol-4-yl)-2-fluorophenyl)-2-(difluoromethoxy)-6-fluorobenzenesulfonamide]",0.17
9,"C[C@H]1CN(C)C[C@H](C)N1c1nc(-c2cccc(NS(=O)(=O)c3c(F)cccc3C(F)(F)F)c2F)c(-c2ccnc(N[C@H]3[C@@H]4CS(=O)(=O)C[C@@H]43)n2)s1 [Example 124, N-(3-(5-(2-(((1R,5S,6r)-3,3-dioxido-3-thiabicyclo[3.1.0]hexan-6-yl)amino)pyrimidin-4-yl)-2-((2S,6S)-2,4,6-trimethylpiperazin-1-yl)thiazol-4-yl)-2-fluorophenyl)-2-fluoro-6-(trifluoromethyl)benzenesulfonamide]",0.04
10,"O=S1(=O)C[C@@H]2[C@H](C1)[C@H]2Nc1nccc(-c2sc(C34CC(C3)C4)nc2-c2cccc(NS(=O)(=O)c3c(OC(F)F)cccc3C(F)(F)F)c2F)n1 [Example 125, N-(3-(2-(bicyclo[1.1.1]pentan-1-yl)-5-(2-(((1R,5S,6r)-3,3-dioxido-3-thiabicyclo[3.1.0]hexan-6-yl)amino)pyrimidin-4-yl)thiazol-4-yl)-2-fluorophenyl)-2-(difluoromethoxy)-6-(trifluoromethyl)-benzenesulfonamide]",4.51
11,"O=S1(=O)C[C@@H]2[C@H](C1)[C@H]2Nc1nccc(-c2sc(N3C4CCC3CN(C3CC3)C4)nc2-c2cccc(NS(=O)(=O)c3c(F)cccc3F)c2F)n1 [Example 127, N-(3-(2-(3-cyclopropyl-3,8-diazabicyclo[3.2.1]octan-8-yl)-5-(2-(((1R,5S,6r)-3,3-dioxido-3-thiabicyclo[3.1.0]hexan-6-yl)amino)-pyrimidin-4-yl)thiazol-4-yl)-2-fluorophenyl)-2,6-difluorobenzene-sulfonamide]",0.06
